Measured values: patent publication US11008317B2, “Triazolopyridine inhibitors of myeloperoxidase and/or EPX” (priority 2016, dated 2021)

How the values were obtained:
myeloperoxidase [1] = target: T1, myeloperoxidase (Homo sapiens, UniProt P05164); assay: MPO Chlorination Assay (APF Assay); type: biochemical; conditions: potency range class, read-out: APF Assay IC50 value
T1 sequence (P05164 49-745): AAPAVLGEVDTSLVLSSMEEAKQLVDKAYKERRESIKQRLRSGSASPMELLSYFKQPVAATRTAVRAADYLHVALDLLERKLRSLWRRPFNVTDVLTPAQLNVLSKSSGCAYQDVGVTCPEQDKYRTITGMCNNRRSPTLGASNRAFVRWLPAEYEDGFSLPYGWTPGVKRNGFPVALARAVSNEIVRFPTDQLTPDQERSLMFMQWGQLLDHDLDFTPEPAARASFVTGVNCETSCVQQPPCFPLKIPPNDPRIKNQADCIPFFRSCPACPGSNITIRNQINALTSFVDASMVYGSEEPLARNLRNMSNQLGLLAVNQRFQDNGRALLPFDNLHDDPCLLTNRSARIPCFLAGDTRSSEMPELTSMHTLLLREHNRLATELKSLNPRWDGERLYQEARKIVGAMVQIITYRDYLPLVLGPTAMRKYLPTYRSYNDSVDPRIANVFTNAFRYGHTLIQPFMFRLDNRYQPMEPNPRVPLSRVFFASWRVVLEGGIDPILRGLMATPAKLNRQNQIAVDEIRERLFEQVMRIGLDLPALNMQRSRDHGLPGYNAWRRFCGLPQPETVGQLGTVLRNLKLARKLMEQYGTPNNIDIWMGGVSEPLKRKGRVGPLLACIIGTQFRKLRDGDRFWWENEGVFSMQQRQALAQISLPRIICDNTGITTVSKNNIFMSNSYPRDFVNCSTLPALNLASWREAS

myeloperoxidase [2] = target: T1, myeloperoxidase; assay: MPO Peroxidation Assay (Amplex Red Assay); type: biochemical; conditions: potency range class, read-out: Amplex Red Assay IC50 value

Row | SMILES | IC50 (myeloperoxidase [1]) [nM] | IC50 (myeloperoxidase [2]) [nM]
1 | Nc1cc(C(CCN[C@H]2CC[C@H](c3ccc(Cl)cc3)CC2)c2ccccc2)c2nn[nH]c2n1 (stereo partly drawn) [Example 108, 7-(1-phenyl-3-{[(trans)-4-(4-chlorophenyl)cyclohexyl]amino}propyl)-3H-[1,2,3] triazolo[4,5-b] pyridin-5-amine] | 1 to 100 | 101 to 999
2 | Nc1cc([C@H](Cc2nc3ccc(Br)cc3s2)c2ccccc2)c2nn[nH]c2n1 [Example 263, (R)-7-(2-(6-bromobenzo [d]thiazol-2-yl)-1-phenylethyl)-3H-[1,2,3]triazolo[4,5-b] pyridin-5-amine] | 101 to 999 | 101 to 999
3 | Nc1cc([C@H](Cc2nc3c(-c4ccccc4)c(F)c(F)cc3[nH]2)c2ccccc2)c2nn[nH]c2n1 [Example 246, (R)-7-(2-(5,6-difluoro-4-phenyl-1H-benzo [d]imidazol-2-yl)-1-phenylethyl)-3H-[1,2,3]triazolo[4,5-b] pyridin-5-amine] | 1 to 100 | 101 to 999
4 | Nc1cc(C(CCNC2CC[C@H](c3ccccc3)[C@@H](O)C2)c2ccccc2)c2nn[nH]c2n1 (stereo partly drawn) [Example 150, (1S,2R)-5-[(3-{5-amino-3H-[1,2,3]triazolo[4,5-b]pyridin-7-yl}-3-phenylpropyl)amino]-2-phenylcyclohexan-1-ol] | 1 to 100 | 101 to 999
5 | CC(C)(CNCCC(c1ccccc1)c1cc(N)nc2[nH]nnc12)c1ccccc1 (stereo not shown) [Example 104, 7-{3-[(2-methyl-2-phenylpropyl)amino]-1-phenylpropyl}-3H-[1,2,3]triazolo[4,5-b] pyridin-5-amine] | 101 to 999 | 101 to 999
6 | Nc1cc([C@H](CCCN2CCCC(c3ccccc3)CC2)c2ccccc2)c2nn[nH]c2n1 (stereo partly drawn) [Example 215, 7-[(1R)-1-phenyl-4-(4-phenylazepan-1-yl)butyl]-3H-[1,2,3]triazolo[4,5-b]pyridin-5-amine] | 1 to 100 | 101 to 999
7 | Nc1cc(C(CCNC23CCC(c4ccccc4)(CC2)CC3O)c2ccccc2)c2nn[nH]c2n1 (stereo not shown) [Example 152, 1-[(3-{5-amino-3H-[1,2,3]triazolo[4,5-b]pyridin-7-yl}-3-phenylpropyl)amino]-4-phenylbicyclo [2.2.2]octan-2-ol] | 1 to 100 | 1 to 100
8 | Nc1cc(C(CCN[C@H]2CC[C@H](c3ccccc3)CC2)c2cccc(F)c2)c2nn[nH]c2n1 (stereo partly drawn) [Example 156, 7-[1-(3-fluorophenyl)-3-{[(trans)-4-phenylcyclohexyl]amino}propyl]-3H-[1,2,3]triazolo [4,5-b]pyridin-5-amine] | 1 to 100 | 101 to 999
9 | COc1ccncc1[C@H]1CC[C@H](NCCC(c2ccccc2)c2cc(N)nc3[nH]nnc23)CC1 (stereo partly drawn) [Example 137, 7-(1-phenyl-3-{[(trans)-4-(4-methoxypyridin-3-yl)cyclohexyl]amino}propyl)-3H-[1,2,3]triazolo [4,5-b]pyridin-5-amine] | 101 to 999 | 1000 to 10000
10 | Nc1cc(C(CCNC2CCc3ccccc3C2)c2ccccc2)c2nn[nH]c2n1 (stereo not shown) [Example 188, 7-{1-phenyl-3-[(1,2,3,4-tetrahydronaphthalen-2-yl)amino]propyl}-3H-[1,2,3]triazolo [4,5-b]pyridin-5-amine] | 1 to 100 | 101 to 999
11 | Nc1cc(C(CCC(O)Cc2ccccc2)c2ccccc2)c2nn[nH]c2n1 (stereo not shown) [Example 234, 5-(5-amino-3H-[1,2,3]triazolo[4,5-b]pyridin-7-yl)-1,5-diphenylpentan-2-ol] | 101 to 999 | 101 to 999
12 | NCc1ccc(C(CCN[C@H]2CC[C@H](c3ccccc3)CC2)c2cc(N)nc3[nH]nnc23)cc1 (stereo partly drawn) [Example 160, 7-{1-[4-(aminomethyl)phenyl]-3-{[(trans)-4-phenylcyclohexyl]amino}propyl}-3H-[1,2,3]triazolo[4,5-b]pyridin-5-amine] | 1000 to 10000 | 101 to 999
13 | Nc1cc(C(CCNC23CCC(c4ccccc4)(CC2)C(O)C3)c2ccccc2)c2nn[nH]c2n1 (stereo not shown) [Example 145, 4-[(3-{5-amino-3H-[1,2,3]triazolo[4,5-b]pyridin-7-yl}-3-phenylpropyl)amino]-1-phenylbicyclo [2.2.2]octan-2-ol] | 1 to 100 | 1 to 100
14 | Nc1cc([C@H](Cc2nc3ccccc3o2)c2ccccc2)c2nn[nH]c2n1 [Example 240, (R)-7-(2-(benzo[d]oxazol-2-yl)-1-phenylethyl)-3H-[1,2,3]triazolo[4,5-b]pyridin-5-amine] | 101 to 999 | 101 to 999
15 | Nc1cc(C(CCNC(Cc2ccccc2)c2ccccc2)c2ccccc2)c2nn[nH]c2n1 (stereo not shown) [Example 48, 7-{3-[(1,2-diphenylethyl)amino]-1-phenylpropyl}-3H-[1,2,3]triazolo[4,5-b]pyridin-5-amine] | 1 to 100 | 101 to 999
16 | Nc1cc([C@H](Cc2nc3ccc(-c4ccccc4)cc3s2)c2ccccc2)c2nn[nH]c2n1 [Example 242, (R)-7-(1-phenyl-2-(6-phenylbenzo[d]thiazol-2-yl)ethyl)-3H-[1,2,3]triazolo [4,5-b]pyridin-5-amine] | 1 to 100 | 1 to 100
17 | Nc1cc(C(CCN[C@@H]2CCc3cc(F)ccc32)c2ccccc2)c2nn[nH]c2n1 (stereo partly drawn) [Example 61, 7-(3-{[(1R)-5-fluoro-2,3-dihydro-1H-inden-1-yl]amino}-1-phenylpropyl)-3H-[1,2,3]triazolo[4,5-b]pyridin-5-amine] | 101 to 999 | 101 to 999
18 | Nc1cc([C@H](CCO)c2ccccc2)c2nn[nH]c2n1 [Example 237, (R)-3-(5-amino-3H-[1,2,3]triazolo[4,5-b]pyridin-7-yl)-3-phenylpropan-1-ol] | 101 to 999 | 101 to 999
19 | N#Cc1cccc(C(CCNC2CCC(c3ccccc3)CC2)c2cc(N)nc3[nH]nnc23)c1 (stereo not shown) [Example 155, 3-(1-{5-amino-3H-[1,2,3]triazolo [4,5-b]pyridin-7-yl}-3-[(4-phenylcyclohexyl)amino]propyl)benzonitrile] | 1 to 100 | 101 to 999
20 | Nc1cc(C(CCNC2CCC(Cc3ccccc3)CC2)c2ccccc2)c2nn[nH]c2n1 (stereo not shown) [Example 129, 7-{3-[(4-benzylcyclohexyl)amino]-1-phenylpropyl}-3H-[1,2,3]triazolo[4,5-b]pyridin-5-amine] | 1 to 100 | 1000 to 10000
21 | Cc1ccc(F)c(C(CCN[C@H]2CC[C@H](c3ccccc3)CC2)c2cc(N)nc3[nH]nnc23)c1 (stereo partly drawn) [Example 168, 7-[1-(2-fluoro-5-methylphenyl)-3-{[(trans)-4-phenylcyclohexyl]amino}propyl]-3H-[1,2,3]triazolo [4,5-b]pyridin-5-amine] | 1 to 100 | 1000 to 10000
22 | Cn1c(C[C@H](c2ccccc2)c2cc(N)nc3[nH]nnc23)nc2cc(-c3ccccc3)ccc21 [Example 258, (R)-7-(2-(1-methyl-5-phenyl-1H-benzo[d]imidazol-2-yl)-1-phenylethyl)-3H-[1,2,3]triazolo[4,5-b] pyridin-5-amine] | 101 to 999 | 1000 to 10000
23 | Nc1cc([C@H](Cc2nc3cccc(-c4ccccc4)c3[nH]2)c2ccccc2)c2nn[nH]c2n1 [Example 238, (R)-7-(1-phenyl-2-(7-phenyl-1H-benzo[d]imidazol-2-yl)ethyl)-3H-[1,2,3]triazolo[4,5-b]pyridin-5-amine] | 1 to 100 | 101 to 999
24 | Nc1cc(C(CCNCC23CC4CC(CC(C4)C2)C3)c2ccccc2)c2nn[nH]c2n1 (stereo not shown) [Example 22, 7-(3-{[(adamantan-1-yl)methyl]amino}-1-phenylpropyl)-3H-[1,2,3]triazolo[4,5-b] pyridin-5-amine] | 101 to 999 | 101 to 999
25 | CC(C)(C)C1CCC(NCCC(c2ccccc2)c2cc(N)nc3[nH]nnc23)CC1 (stereo not shown) [Example 96, 7-{3-[(4-tert-butylcyclohexyl)amino]-1-phenylpropyl}-3H-[1,2,3]triazolo[4,5-b] pyridin-5-amine] | 101 to 999 | 1000 to 10000
26 | Nc1cc([C@H](Cc2nc3ccccc3s2)c2ccccc2)c2nn[nH]c2n1 [Example 239, (R)-7-(2-(benzo[d]thiazol-2-yl)-1-phenylethyl)-3H-[1,2,3]triazolo[4,5-b]pyridin-5-amine] | 101 to 999 | 1 to 100
27 | NC(=O)c1ccc(-c2cccc3[nH]c(C[C@H](c4ccccc4)c4cc(N)nc5[nH]nnc45)nc23)cc1 [Example 249, (R)-4-(2-(2-(5-amino-3H-[1,2,3]triazolo [4,5-b]pyridin-7-yl)-2-phenylethyl)-1H-benzo[d]imidazol-4-yl)benzamide] | 1 to 100 | 101 to 999
28 | Nc1cc(C(CCCN2CCC(O)(c3ccccc3)CC2)c2ccccc2)c2nn[nH]c2n1 (stereo not shown) [Example 207, 1-(4-{5-amino-3H-[1,2,3]triazolo [4,5-b]pyridin-7-yl}-4-phenylbutyl)-4-phenylpiperidin-4-ol] | 1 to 100 | 101 to 999
29 | Nc1cc(C(CCN[C@H]2CCc3cc(F)ccc32)c2ccccc2)c2nn[nH]c2n1 (stereo partly drawn) [Example 58, 7-(3-{[(1S)-5-fluoro-2,3-dihydro-1H-inden-1-yl]amino}-1-phenylpropyl)-3H-[1,2,3]triazolo[4,5-b]pyridin-5-amine] | 1 to 100 | 101 to 999
